Values quoted from earlier work, collected in publication PMC6315591 (Marine Drugs, 2018).

Tested on: muscle nAChR on BC3H-1 cells

Substance: α-conotoxin MI
- greater affinity at the α/δ versus α/γ interface: 10,000 fold
